Structures can show the parent of a compound that is named as a salt.
How the values were obtained:
[1] = molecular target: T1, MAPK14/p38α kinase (Homo sapiens, UniProt Q16539); assay: MAPK14/p38α kinase assay (LanthaScreen TR-FRET); assay type: biochemical; conditions: 100 nM concentration of compound; read-out: Enzyme Activity MAPK14 (p38 alpha) % Inhibition at 100 nM
T1 construct: purchased ThermoFisher PV3304
Procedure: MAPK14/p38α Kinase Assay for IC50 Determination:
IC50 values of compounds against MAPK14/P38α kinase were determined by Lanthascreen based TR-FRET assay. Kinase reactions were performed in a 10 μL volume in low-volume 384-well plates. The concentration of substrate was maintained at 400 nM in the assay, and the kinase reaction buffer (1×; Cat # PV3189, ThermoFisher) consisted of 50 mM HEPES pH 7.5, 0.01% BRIJ-35, 10 mM MgCl2, and 1 mM EGTA. Serially diluted compounds (3-fold) in DMSO (0.5% in final reaction) were incubated with cocktail of MAPK14/p38α kinase (20 ng/ml; Cat # PV3304, ThermoFisher), Substrate GFP-ATF2 (19-96), (0.4 μM; Cat # PV4445, ThermoFisher), ATP (90 μM; Cat # PV3227, ThermoFisher) and buffer. Kinase reactions were allowed to proceed for 1 hour at room temperature before EDTA (10 mM; Cat # P2825, ThermoFisher) and LanthaScreen™ Tb-antipATF2 (pThr71) Antibody (2 nM; Cat # PV4451, ThermoFisher) in TR-FRET dilution buffer (IX; Cat # PV3574, ThermoFisher) were added. The plate was allowed to incubate at room temperature for 30 minutes before being read on a BMG Pherastar plate reader using the LanthaScreen™ filter block for LanthaScreen™ TR-FRET.
The resulting TR-FRET emission ratio was plotted against the concentration of inhibitor, and the data was fit to a sigmoidal dose-response curve with a variable slope. The IC50 for the inhibitor was calculated from the curve.

[2] = test system: MIA PaCa-2; assay: Cell viability assay (resazurin, 96 hr) in MIA PaCa-2; assay type: cell-based; conditions: Homo sapiens; MIA PaCa-2 pancreatic cell line, 96 hr exposure; read-out: MiaPaCa-2_Cell Viability_IC50
Procedure: (§1) Cell Viability Assay in MIA PaCa-2 and Panc-1
(§2) MIA PaCa-2 (ATCC® CRL-1420™) and Panc-1 (CRL-1469™), both pancreatic cell lines were seeded in their respective medium (DMEM, Cat #10569044 with 10% FBS, Cat #16000044; Gibco for Panc-1 and an additional 2.5% Horse Serum, Cat #16050122; Gibco for MIA PaCa-2) at a cell count of 3000 cells per 100 μl per well in a 96 well edge plate (167425; ThermoFisher). Cells were allowed to grow at 37° C. for 24 hr in 5% CO2 (culture conditions) in a Nuaire incubator (humidified). Serially diluted compounds (100 μl) were added to the culture plate 24 hr later and the cultures (MIA PaCa-2 and Panc-1) were further incubated in culture conditions for 96 hr. Experiment was terminated at the completion of 96 hr exposure to the drug by replacing the medium with 100 μl of 1 mM of resazurin (R7017; Sigma) prepared in culture medium and the plates were further incubated in culture conditions for 4 hr. Fluorescence was then measured using a multimodal plate reader (Biotek Synergy Neo) at an excitation wavelength of 535 nm and emission wavelength of 590 nm to obtain relative fluorescence units. Data analysis was done by subtracting the background fluorescence (only medium blank) value from each reading and then normalizing with the vehicle control (DMSO treated cells) to obtain percent survival/proliferation. Percent survival at different doses was used to calculate IC50 by fitting the curve to the “four-parameter variable slope logistic model” using Prism Graph Pad.

[3] = test system: Panc-1; assay: Cell viability assay (resazurin, 96 hr) in Panc-1; assay type: cell-based; conditions: Homo sapiens; Panc-1 pancreatic cell line, 96 hr exposure; read-out: Panc-1_Cell Viability_IC50
Procedure: as §1, §2

[4] = molecular target: T2, TGFBR1 (ALK5) (Homo sapiens, UniProt P36897); assay: ALK5 kinase assay (LanthaScreen Terbium labeled TR-FRET); assay type: biochemical; conditions: for inhibition at 0.1 µM: 100 nM concentration of compound, read-out: Enzyme Activity TGFBR1 (ALK5) % Inhibition at 100 nM; for IC50: Table 5, read-out: ALK5 IC50
T2 sequence (P36897 34-503): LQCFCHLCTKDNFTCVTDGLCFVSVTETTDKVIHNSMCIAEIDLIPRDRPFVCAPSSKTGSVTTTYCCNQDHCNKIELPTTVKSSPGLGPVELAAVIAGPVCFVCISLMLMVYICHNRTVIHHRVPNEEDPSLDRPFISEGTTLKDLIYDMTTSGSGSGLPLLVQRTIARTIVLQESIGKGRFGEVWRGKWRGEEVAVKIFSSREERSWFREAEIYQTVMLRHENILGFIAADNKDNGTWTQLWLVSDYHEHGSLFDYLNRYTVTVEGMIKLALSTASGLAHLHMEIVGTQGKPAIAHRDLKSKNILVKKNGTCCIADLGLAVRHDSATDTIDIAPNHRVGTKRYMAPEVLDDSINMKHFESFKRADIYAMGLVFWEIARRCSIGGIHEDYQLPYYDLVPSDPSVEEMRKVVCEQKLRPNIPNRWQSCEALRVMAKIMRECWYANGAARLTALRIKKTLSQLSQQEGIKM
Procedure: ALK5 Kinase Assay for IC50 Determination:
IC50 values of compounds against TGFβ kinase was determined by LanthaScreen™ Terbium Labeled TR-FRET assay. Kinase assays were performed in IX kinase buffer (# PV6135, Invitrogen, Life Technologies Grand Island, N.Y.) where total reaction volume was 10 μL in low-volume 384-well plates (#4511,Corning). Serially diluted compounds (3-fold) were incubated with TGFβ kinase (6 nM) for 10 min, following which a mixture of ATP (10 μM) (# A1852, Sigma, St-Louis, Mo.) and fluorescent-PolyGT substrate (200 nM) (# PV3610, Invitrogen, Life Technologies Grand Island, N.Y.) was added and incubated in dark at room temperature for 1 h. After 1 h, 10 μL stop solution containing Terbium labeled antibody (4 nM) (# PV3529, Invitrogen, Life Technologies Grand Island, N.Y.) and EDTA (# E5134, Sigma, St-Louis, Mo.) (20 mM) in TR-FRET dilution buffer (# PV3574, Invitrogen, Life Technologies Grand Island, N.Y.) was added. Readings were taken in a Synergy Neo Plate reader (BioTek, Winooski) at single excitation of 340 nm and Dual emission at 495 nm and 520 nm respectively.
The % activity of test samples was calculated as (Sample−Min)×100/(Max−Min). [Max: DMSO control, complete reaction with enzyme with DMSO and Min: No enzyme with DMSO]. Percent inhibition (100-% activity) was fitted to the “four-parameter logistic model” in XLfit for determination of IC50 values.

T1 sequence (Q16539 whole entry): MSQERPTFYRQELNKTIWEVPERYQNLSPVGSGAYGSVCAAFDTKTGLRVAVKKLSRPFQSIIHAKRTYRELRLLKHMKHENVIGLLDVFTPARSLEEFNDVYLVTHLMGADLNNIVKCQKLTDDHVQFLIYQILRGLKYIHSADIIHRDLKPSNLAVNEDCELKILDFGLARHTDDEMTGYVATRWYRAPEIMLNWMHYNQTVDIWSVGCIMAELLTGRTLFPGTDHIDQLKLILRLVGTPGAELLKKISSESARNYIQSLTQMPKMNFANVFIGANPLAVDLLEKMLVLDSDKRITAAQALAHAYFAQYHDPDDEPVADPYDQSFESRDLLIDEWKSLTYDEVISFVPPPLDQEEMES

Structure (SMILES)	inhibition at 0.1 µM [1]	IC50 [2]	IC50 [3]	inhibition at 0.1 µM [4]	IC50 [4]
CC(C)c1cnc(-c2ccc(F)cc2)nc1Nc1ccnc2[nH]cc(N3CCNCC3)c12 [Compound No. 1, N-(2-(4-fluorophenyl)-5-isopropylpyrimidin-4-yl)-3-(piperazin-1-yl)-1H-pyrrolo [2,3-b] pyridin-4-amine hydrochloride]	61%	1.63 µM	2.31 µM	99%	
CC(C)c1cnc(-c2ccc(F)cc2)nc1Nc1ccnc2[nH]cc(N3CCN(C)CC3)c12 [Compound No. 2, N-(2-(4-fluorophenyl)-5-isopropylpyrimidin-4-yl)-3-(4-methylpiperazin-1-yl)-1H-pyrrolo [2,3-b] pyridin-4-amine hydrochloride]	19%	7.7 µM	2.21 µM	84%	
CC(C)c1cnc(-c2ccc(F)cc2)nc1Nc1ccnc2[nH]cc(N3CCCCC3)c12 [Compound No. 3, N-(2-(4-fluorophenyl)-5-isopropylpyrimidin-4-yl)-3-(piperidin-1-yl)-1H-pyrrolo [2,3-b] pyridin-4-amine hydrochloride]	42%	> 30 µM	> 27 µM	72%	
CC(C)c1cnc(-c2ccc(F)cc2)nc1Nc1ccnc2[nH]cc(N3CCNCC3C)c12 (stereo not shown) [Compound No. 4, N-(2-(4-fluorophenyl)-5-isopropylpyrimidin-4-yl)-3-(2-methylpiperazin-1-yl)-1H-pyrrolo[2,3-b]pyridin-4-amine hydrochloride]	72%	1.54 µM	1.88 µM	94%	
CC(C)c1cnc(-c2ccc(F)cc2)nc1Nc1ccnc2[nH]cc(C3(O)CCNCC3)c12 [Compound No. 13, 4-(4-((2-(4-fluorophenyl)-5-isopropylpyrimidin-4-yl)amino)-1H-pyrrolo[2,3-b]pyridin-3-yl)piperidin-4-ol hydrochloride]		10.9 µM	17.9 µM		0.108 µM
CC(C)c1cnc(-c2ccc(F)cc2)nc1Nc1ccnc2[nH]cc(N3CCOCC3C)c12 (stereo not shown) [Compound No. 14, N-(2-(4-fluorophenyl)-5-isopropylpyrimidin-4-yl)-3-(3-methylmorpholino)-1H-pyrrolo [2,3-b] pyridin-4-amine hydrochloride]		11.1 µM	11.2 µM		3.71 µM
CC(C)c1cnc(-c2ccc(F)cc2)nc1Nc1ccnc2[nH]cc(N3CCC(N)CC3)c12 [Compound No. 15, 3-(4-aminopiperidin-1-yl)-N-(2-(4-fluorophenyl)-5-isopropylpyrimidin-4-yl)-1H-pyrrolo[2,3-b]pyridin-4-amine hydrochloride]		5.5 µM	2.96 µM		0.245 µM
CC(C)c1cnc(-c2ccc(F)cc2)nc1Nc1ccnc2[nH]cc(C(=O)C(=O)N(C)C)c12 [Compound No. 16, 2-(4-((2-(4-fluorophenyl)-5-isopropylpyrimidin-4-yl)amino)-1H-pyrrolo[2,3-b]pyridin-3-yl)-N,N-dimethyl-2-oxoacetamide]		10.2 µM	17.1 µM		1.92 µM
CCCCNC(=O)C(=O)c1c[nH]c2nccc(Nc3nc(-c4ccc(F)cc4)ncc3C(C)C)c12 [Compound No. 20, N-butyl-2-(4-(2-(4-fluorophenyl)-5-isopropylpyrimidin-4-ylamino)-1H-pyrrolo [2,3-b]pyridin-3-yl)-2-oxoacetamide hydrochloride]		> 30 µM	> 30 µM		> 5 µM
CNC(=O)C(=O)c1c[nH]c2nccc(Nc3cc(-c4ccc(F)cc4)ncc3C(C)C)c12 [Compound No. 21, 2-(4-((2-(4-fluorophenyl)-5-isopropylpyridin-4-yl)amino)-1H-pyrrolo[2,3-b]pyridin-3-yl)-N-methyl-2-oxoacetamide hydrochloride]		10.7 µM	12.7 µM		0.574 µM
CC(C)c1cnc(-c2ccc(F)cc2)nc1Nc1ccnc2[nH]cc(C(=O)C(=O)N3CCOCC3)c12 [Compound No. 22, 1-(4-(2-(4-fluorophenyl)-5-isopropylpyrimidin-4-ylamino)-1H-pyrrolo [2,3-b]pyridin-3-yl)-2-morpholinoethane-1,2-dione hydrochloride]		> 30 µM	14.2 µM		3.95 µM
CC(C)c1cnc(-c2ccc(F)cc2)nc1Nc1ccnc2[nH]cc(C(=O)C(=O)N3CCN(C)CC3)c12 [Compound No. 24, 1-(4-(2-(4-fluorophenyl)-5-isopropylpyrimidin-4-ylamino)-1H-pyrrolo [2,3-b]pyridin-3-yl)-2-(4-methylpiperazin-1-yl) ethane-1,2-dione hydrochloride]		0.77 µM	> 30 µM		1.5 µM
COc1ccc(-c2ncc(C(C)C)c(Nc3ccnc4[nH]cc(C(=O)C(N)=O)c34)n2)cc1 [Compound No. 25, 2-(4-((5-isopropyl-2-(4-methoxyphenyl)pyrimidin-4-yl)amino)-1H-pyrrolo[2,3-b]pyridin-3-yl)-2-oxoacetamide hydrochloride]		> 30 µM	> 30 µM		2.57 µM
CNC(=O)C(=O)c1c[nH]c2nccc(Nc3nc(-c4ccc(F)cc4)ncc3C(C)C)c12 [Compound No. 29, 2-(4-((2-(4-fluorophenyl)-5-isopropylpyrimidin-4-yl)amino)-1H-pyrrolo[2,3-b]pyridin-3-yl)-N-methyl-2-oxoacetamide hydrochloride]		23 µM	26 µM		2.77 µM
